Patent publication US20230126310A1 (priority 2020, published 2023)
Structures can show the parent of a compound that is named as a salt. Peptide text beside a SMILES is read from it.

Each compound was assayed on SARS-CoV-2 (assay: microbe, parasite or virus in culture). Conditions: Severe acute respiratory syndrome coronavirus 2, Caco-2, 48 h.
`COc1ccc(Cc2nccc3cc(OC)c(OC)cc23)cc1OC` [PAPAVERINE HYDROCHLORIDE] gave an IC50 of 0.95 µM.
`CCNC1=Nc2ccc(Cl)cc2C(C)(c2ccccc2)O1` (stereo not shown) [Etifoxine (hydrochloride)] gave an IC50 of 9.29 µM.
With `COC(=O)C1=C(C)NC(C)=C(C(=O)OCCCN2CCC(c3ccccc3)(c3ccccc3)CC2)[C@@H]1c1cccc([N+](=O)[O-])c1` [dexniguldipine] the IC50 was 35.8 µM.
`N#CC(c1ccnc(OCc2ccc(CN3CCOCC3)cc2)n1)c1nc2ccccc2s1` (stereo not shown) [Bentamapimod] gave an IC50 of 5.12 µM.

Same assay, conditions: Severe acute respiratory syndrome coronavirus 2, Caco-2, 48 h, read-out: % Inh. (% Inhibition of SARS-CoV-2)
Work on `Clc1ccc(C(Cn2ccnc2)OCc2ccsc2Cl)c(Cl)c1` (stereo not shown) [TIOCONAZOLE] yielded an inhibition at 10 µM of 50.6%.
For `FC(F)c1nc2ccccc2n1-c1nc(N2CCOCC2)nc(N2CCOCC2)n1` [ZSTK474], the inhibition at 10 µM was 90.9%.
With `CCCC1O[C@@H]2C[C@H]3[C@@H]4CCC5=CC(=O)C=C[C@]5(C)[C@H]4[C@@H](O)C[C@]3(C)[C@]2(C(=O)CO)O1` (stereo partly shown) [budesonide] the inhibition at 10 µM was 74.4%.
Work on `CC1(C)CC[C@]2(C(=O)O)CC[C@]3(C)[C@H](C(=O)C=C4[C@@]5(C)C=C(C#N)C(=O)C(C)(C)[C@@H]5CC[C@]43C)[C@@H]2C1` [Bardoxolone] yielded an inhibition at 10 µM of 66%.
`Nc1cc(C(F)(F)F)c(-c2nc(N3CCOCC3)nc(N3CCOCC3)n2)cn1` [Bimiralisib] showed an inhibition at 10 µM of 97.2%.
`C[S+]([O-])CCCCN=C=S` (stereo not shown) [sulforaphane] gave an inhibition at 10 µM of 94.2%.
With `C#Cc1cccc(Nc2ncnc3cc4c(cc23)OCCOCCOCCO4)c1` [Icotinib] the inhibition at 10 µM was 68.1%.
Work on `CCOC(=O)Nc1cc2c(c(N)n1)N=C(c1ccccc1)[C@H](C)N2` [mivobulin] yielded an inhibition at 10 µM of 65%.
`Cn1c(NC[C@@H](N)Cc2ccccc2)nc(-c2ccncc2)c(-c2ccc3ccccc3c2)c1=O` [AMG-548] showed an inhibition at 10 µM of 89%.
`CC(O)COC[C@H]1O[C@@H]2O[C@H]3[C@H](O)[C@@H](O)[C@@H](O[C@H]4[C@H](O)[C@@H](O)[C@@H](O[C@H]5[C@H](O)[C@@H](O)[C@@H](O[C@H]6[C@H](O)[C@@H](O)[C@@H](O[C@H]7[C@H](O)[C@@H](O)[C@@H](O[C@H]8[C@H](O)[C@@H](O)[C@@H](O[C@H]1[C@H](O)[C@H]2O)O[C@@H]8COCC(C)O)O[C@@H]7COCC(C)O)O[C@@H]6COCC(C)O)O[C@@H]5COCC(C)O)O[C@@H]4COCC(C)O)O[C@@H]3COCC(C)O` (stereo partly drawn) [hydroxypropyl-beta-cyclodextrin] gave an inhibition at 10 µM of 56.5%.
`CC(C)(C)NC[C@H](O)COc1cccc2c1CCCC2=O` [levobunolol] showed an inhibition at 10 µM of 64.5%.
Compound `CC(=O)OCC1=C(C(=O)O)N2C(=O)[C@@H](NC(=O)Cc3cccs3)[C@H]2SC1` [Cephalothin] has an inhibition at 10 µM of 53.7%.
Work on `COc1ccc(CCc2nc3cc(-c4c(C)noc4C)ccc3n2C[C@H](C)N2CCOCC2)cc1Cl` [SGC-CBP30] yielded an inhibition at 10 µM of 59.2%.
In the case of `CCN(CC)Cc1cc(Nc2ccnc3cc(Cl)ccc23)ccc1O` [AMODIAQUINE DIHYDROCHLORIDE], the inhibition at 10 µM is reported as 78.8%.
Work on `COC[C@H](NC(=O)c1cnc(C)s1)C(=O)N[C@@H](COC)C(=O)N[C@@H](Cc1ccccc1)C(=O)[C@@]1(C)CO1` [Oprozomib (ONX 0912), Oprozomib] yielded an inhibition at 10 µM of 52.7%.
In the case of `O=c1[nH]c2ccccc2n1C1CCN(CCCC(c2ccc(F)cc2)c2ccc(F)cc2)CC1` [PIMOZIDE], the inhibition at 10 µM is reported as 94%.
With `CS(=O)(=O)CCNCc1nc(-c2ccc3ncnc(Nc4ccc(OCc5cccc(F)c5)c(Cl)c4)c3c2)cs1` [GW-583340] the inhibition at 10 µM was 60.1%.
For `Cc1[nH]cnc1-c1ccc(Cl)cc1` [lofemizole], the inhibition at 10 µM was 56.3%.
`COc1ccc(/C=C/C(=O)O)cc1` [trans-4-Methoxycinnamic-acid] was tested, and the inhibition at 10 µM was 53.6%.
In the case of `Cc1nc(Nc2ncc(C(=O)Nc3c(C)cccc3Cl)s2)cc(N2CCN(CCO)CC2)n1` [Dasatinib], the inhibition at 10 µM is reported as 52.7%.
Work on `NCCC(Oc1ccc(C(F)(F)F)cc1)c1ccccc1` (stereo not shown) [norfluoxetine] yielded an inhibition at 10 µM of 95%.
Compound `CN(C)C(=O)C(CCN1CCC(O)(c2ccc(Cl)cc2)CC1)(c1ccccc1)c1ccccc1` [LOPERAMIDE HYDROCHLORIDE] has an inhibition at 10 µM of 58.9%.
Work on `CCOc1cc2ncc(C#N)c(Nc3ccc(OCc4cccc(F)c4)c(Cl)c3)c2cc1NC(=O)/C=C/CN(C)C` [HKI-357] yielded an inhibition at 10 µM of 77.7%.
`CCc1cnn2c(NCc3ccc[n+]([O-])c3)cc(N3CCCC[C@H]3CCO)nc12` [Dinaciclib (SCH727965), Dinaciclib] gave an inhibition at 10 µM of 79.4%.
`Oc1c(Cl)cc(Cl)c(Cl)c1Cc1c(O)c(Cl)cc(Cl)c1Cl` [HEXACHLOROPHENE] showed an inhibition at 10 µM of 92.9%.
`C[N+](C)(C)CC(=O)O` [BETAINE HYDROCHLORIDE] showed an inhibition at 10 µM of 95.7%.
With `COc1cc(C)c2c(Oc3cccc(C(F)(F)F)c3)c(OC)cc(NC(C)CCCN)c2n1` (stereo not shown) [tafenoquine] the inhibition at 10 µM was 90%.
`O=C(O)c1ccccc1O` [SALICYLIC ACID] was tested, and the inhibition at 10 µM was 71.3%.
`OCCOc1ccc(/C(=C(/CCCl)c2ccccc2)c2ccccc2)cc1` [Ospemifene] gave an inhibition at 10 µM of 52.9%.
`Cc1cc(C(C#N)c2ccc(Cl)cc2)c(Cl)cc1NC(=O)c1cc(I)cc(I)c1O` (stereo not shown) [CLOSANTEL] gave an inhibition at 10 µM of 80%.
`O=c1[nH]c2ccccc2n1C1CCN(CCOc2ccccc2)CC1` [oxiperomide] was tested, and the inhibition at 10 µM was 77.9%.
Compound `C=CC(=O)Nc1cccc(Nc2nc(Nc3ccc(N4CCN(C(C)=O)CC4)cc3OC)ncc2C(F)(F)F)c1` [Rociletinib (CO-1686, AVL-301), Rociletinib] has an inhibition at 10 µM of 84.9%.
Work on `COc1cc2nc(N3CCN(C(=O)c4ccco4)CC3)nc(N)c2cc1OC` [PRAZOSIN HYDROCHLORIDE] yielded an inhibition at 10 µM of 58%.
`CN1CCc2cc3c(cc2C1O)OCO3` (stereo not shown) [HYDRASTININE HYDROCHLORIDE] showed an inhibition at 10 µM of 56.3%.
Compound `CCCCC(CC)CNC(=N)NC(=N)NCCCCCCNC(=N)NC(=N)NCC(CC)CCCC` (stereo not shown) [Alexidine dihydrochloride] has an inhibition at 10 µM of 76.3%.
`C/C=C/C=C/C(=O)O` [sorbic-acid] showed an inhibition at 10 µM of 65.5%.
`C/C(=N\NC(=S)NNC(=S)Nc1ccccc1Cl)c1ccccn1` [N-(2-chlorophenyl)-2-({(2E)-2-[1-(2-pyridinyl)ethylidene]hydrazino}carbothioyl)hydrazinecarbothioamide] gave an inhibition at 10 µM of 101%.
Compound `Clc1ccc(C(Cn2ccnc2)OCc2csc3c(Cl)cccc23)c(Cl)c1` (stereo not shown) [Sertaconazole nitrate] has an inhibition at 10 µM of 88.9%.
`COc1cc2ncnc(Nc3ccc(F)c(Cl)c3)c2cc1NC(=O)/C=C/CN1CCCCC1` [Dacomitinib (PF299804, PF-00299804), Dacomitinib] was tested, and the inhibition at 10 µM was 85.5%.
Compound `Oc1cccc(-c2c3nc(c(-c4cccc(O)c4)c4ccc([nH]4)c(-c4cccc(O)c4)c4nc(c(-c5cccc(O)c5)c5ccc2[nH]5)CC4)C=C3)c1` [Temoporfin] has an inhibition at 10 µM of 85.9%.
With `CCN1CCN(Cc2ccc(-c3cc4c(N[C@H](C)c5ccccc5)ncnc4[nH]3)cc2)CC1` [AEE788] the inhibition at 10 µM was 90.9%.
Work on `CC(C)Oc1ccc2c(=O)c(-c3ccccc3)coc2c1` [IPRIFLAVONE] yielded an inhibition at 10 µM of 51.4%.
Compound `O=C(NC[C@H](O)CO)c1ccncc1Nc1ccc(I)cc1F` [Pimasertib (AS-703026), Pimasertib] has an inhibition at 10 µM of 53.2%.
`CCOc1cc2ncc(C#N)c(Nc3ccc(F)c(Cl)c3)c2cc1NC(=O)/C=C/CN(C)C` [Pelitinib (EKB-569), Pelitinib] was tested, and the inhibition at 10 µM was 83.4%.
With `COc1cc2c(Nc3ccc(Br)cc3F)ncnc2cc1OCC1CCN(C)CC1` [Vandetanib (ZD6474), Vandetanib] the inhibition at 10 µM was 51.2%.
`CCCCN(CC)c1nc(C)nc2c1c(C)c(C)n2-c1c(C)cc(C)cc1C` [antalarmin] gave an inhibition at 10 µM of 59%.
With `Cc1ccccc1-n1c(CF)nc2ccc(N)cc2c1=O` [Afloqualone] the inhibition at 10 µM was 50.1%.
`COc1ccc(C(Cl)=C(c2ccc(OC)cc2)c2ccc(OC)cc2)cc1` [chlorotrianisene] gave an inhibition at 10 µM of 55.3%.
`COC(=O)C1=C(C)NC(C)=C(C(=O)OCCCN2CCC(c3ccccc3)(c3ccccc3)CC2)[C@@H]1c1cccc([N+](=O)[O-])c1` [dexniguldipine] gave an inhibition at 10 µM of 97.6%.
For `CNC(=O)[C@@H](NC(=O)[C@H](CC(C)C)[C@H](O)C(=O)NO)C(C)(C)C` [Marimastat], the inhibition at 10 µM was 68.7%.
`O=C(Nc1ccc(Cl)cc1)Nc1ccc(Cl)c(Cl)c1` [Triclocarban] showed an inhibition at 10 µM of 97.2%.
Work on `CC(C)C[C@H](NC(=O)[C@@H]1CCCN1)C(=O)NCC(N)=O` [prolylleucylglycinamide] (H-Pro-Leu-Gly-NH2) yielded an inhibition at 10 µM of 70.6%.
`CC[C@@]1(O)C(=O)OCc2c1cc1n(c2=O)Cc2cc3ccccc3nc2-1` [camptothecin] was tested, and the inhibition at 10 µM was 81.8%.
In the case of `NCCNC(=O)c1ccc(Cl)cn1` [lazabemide], the inhibition at 10 µM is reported as 67.9%.
For `COC(=O)Nc1nc2ccc(C(=O)c3cccs3)cc2[nH]1` [nocodazole], the inhibition at 10 µM was 66.1%.
`COc1ccc(-n2nc(C(N)=O)c3c2C(=O)N(c2ccc(N4CCCCC4=O)cc2)CC3)cc1` [APIXABAN] was tested, and the inhibition at 10 µM was 78%.
For `COc1ccc(S(=O)(=O)N2CCC[C@H]2C(=O)Nc2cc(C)cc(C)c2)cc1` [ACT-462206], the inhibition at 10 µM was 53.8%.
In the case of `CCN(CC)CCO[C@H]1CC[C@@]2(C)C(=CC[C@@H]3[C@@H]2CC[C@]2(C)C(=O)CC[C@@H]32)C1` [U-18666A], the inhibition at 10 µM is reported as 77.4%.
For `CC(=O)Oc1c(C)cc(OCC(O)CNC(C)C)c(C)c1C` (stereo not shown) [metipranolol], the inhibition at 10 µM was 54.6%.
Work on `O=C(O)CCCCC(=O)O` [adipic-acid] yielded an inhibition at 10 µM of 55.9%.
`OC[C@H]1O[C@@H](n2cnc3c(NC4CCCC4)nc(Cl)nc32)[C@H](O)[C@@H]1O` [2-chloro-N6-cyclopentyladenosine] gave an inhibition at 10 µM of 57.7%.
`Clc1ccc(C(Cn2ccnc2)OCc2c(Cl)cccc2Cl)c(Cl)c1` (stereo not shown) [Isoconazole nitrate (Travogen), Isoconazole nitrate] showed an inhibition at 10 µM of 75.9%.
For `CCN1C(=O)CNc2ncc(-c3ccc(-c4nc[nH]n4)nc3C)nc21` [CC-115], the inhibition at 10 µM was 96.6%.
`COc1cccc2cc(-c3nc([C@H]4CC[C@H](C(=O)O)CC4)n4ncnc(N)c34)[nH]c12` [OSI-027] was tested, and the inhibition at 10 µM was 105%.
`CC1(C)S[C@@H]2[C@H](N3C(=O)[C@@H](c4ccccc4)NC3(C)C)C(=O)N2[C@H]1C(=O)O` [HETACILLIN POTASSIUM] gave an inhibition at 10 µM of 67.1%.
`CC1(C)CC(=O)c2c(C(F)(F)F)nn(-c3ccc(C(N)=O)c(N[C@H]4CC[C@H](O)CC4)c3)c2C1` [SNX-2112] gave an inhibition at 10 µM of 96.6%.
With `N#CC(c1ccnc(OCc2ccc(CN3CCOCC3)cc2)n1)c1nc2ccccc2s1` (stereo not shown) [Bentamapimod] the inhibition at 10 µM was 78.4%.
`COc1cc(C(=O)NC2CCN(C)CC2)c(F)cc1Nc1ncc2c(n1)N(C1CCCC1)CC(F)(F)C(=O)N2C` [TAK-960] gave an inhibition at 10 µM of 91.6%.

Same assay, conditions: Severe acute respiratory syndrome coronavirus 2, Caco-2, 48 h, read-out: pIC50 (converted)
Work on `COc1ccc(Cc2nccc3cc(OC)c(OC)cc23)cc1OC` [PAPAVERINE HYDROCHLORIDE] yielded an IC50 of 0.955 µM.
Work on `CCNC1=Nc2ccc(Cl)cc2C(C)(c2ccccc2)O1` (stereo not shown) [Etifoxine (hydrochloride)] yielded an IC50 of 9.33 µM.
Compound `COC(=O)C1=C(C)NC(C)=C(C(=O)OCCCN2CCC(c3ccccc3)(c3ccccc3)CC2)[C@@H]1c1cccc([N+](=O)[O-])c1` [dexniguldipine] has an IC50 of 35.5 µM.
`N#CC(c1ccnc(OCc2ccc(CN3CCOCC3)cc2)n1)c1nc2ccccc2s1` (stereo not shown) [Bentamapimod] gave an IC50 of 5.13 µM.
